# Target: T1, human PAH with the R408W mutation (A375 R408W cells) (Homo sapiens, UniProt P00439, R408W)
# T1 construct: expressed in transfected cells
# T1 sequence (P00439 1-452 R408W): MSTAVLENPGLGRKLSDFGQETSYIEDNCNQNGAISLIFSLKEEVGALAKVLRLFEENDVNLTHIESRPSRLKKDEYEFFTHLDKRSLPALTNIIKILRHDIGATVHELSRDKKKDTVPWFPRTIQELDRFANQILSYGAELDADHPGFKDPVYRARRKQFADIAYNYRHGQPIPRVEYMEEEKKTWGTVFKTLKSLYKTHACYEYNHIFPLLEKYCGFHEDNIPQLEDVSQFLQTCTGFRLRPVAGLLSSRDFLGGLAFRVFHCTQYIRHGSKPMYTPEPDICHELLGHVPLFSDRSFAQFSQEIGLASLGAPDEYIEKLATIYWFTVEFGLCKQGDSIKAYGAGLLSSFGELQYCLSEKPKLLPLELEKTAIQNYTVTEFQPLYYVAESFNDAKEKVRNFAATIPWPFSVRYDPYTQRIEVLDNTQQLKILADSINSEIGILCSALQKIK
# Assay: Cell Based Phenylalanine Flux Assay
# Conditions: A375 R408W cells; 24 hrs with compound, then 20 μM sepiapterin and 800 μM 13C9,15N-Phenylalanine for 4 hours; 13C-Tyrosine by LC-MS; average where tested multiple times
# Method in brief: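 A375 cells stably expressing lentiviral human PAH R408W were treated with compounds (10-point 2-fold dilutions, 0.5% DMSO, duplicate) for 24 h at 37 °C. Then 20 μM sepiapterin and 800 μM 13C9,15N-Phe were added for 4 h; media 13C-Tyr was measured by LC-MS to give AC50.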
row,Compound,AC50 [µM]
1,"O=C(c1nnc(-c2cnn(C(F)F)c2)o1)N1CCc2[nH]cnc2[C@@H]1c1nc2c(F)ccc(F)c2o1 [Example 802, (R)-(4-(4,7-difluorobenzo[d]oxazol-2-yl)-6,7-dihydro-1H-imidazo[4,5-c]pyridin-5(4H)-yl)(5-(1-(difluoromethyl)-1H-pyrazol-4-yl)-1,3,4-oxadiazol-2-yl)methanone]",0.5 to 1
2,"Cc1ncoc1C(=O)N1CCc2[nH]cnc2[C@H]1c1nc2c(F)ccc(F)c2o1 [Example 807, (S)-(4-(4,7-difluorobenzo[d]oxazol-2-yl)-6,7-dihydro-1H-imidazo[4,5-c]pyridin-5(4H)-yl)(4-methyloxazol-5-yl)methanone]",≤ 0.5
3,"Cc1ncoc1C(=O)N1CCc2[nH]cnc2[C@@H]1c1nc2c(F)ccc(F)c2o1 [Example 808, (R)-(4-(4,7-difluorobenzo[d]oxazol-2-yl)-6,7-dihydro-1H-imidazo[4,5-c]pyridin-5(4H)-yl)(4-methyloxazol-5-yl)methanone]",1 to 5
4,"O=C(c1nnc(-c2cnn(C3CCC3)c2)o1)N1CCc2[nH]cnc2[C@H]1c1nc2c(F)ccc(F)c2o1 [Example 811, (S)-(5-(1-cyclobutyl-1H-pyrazol-4-yl)-1,3,4-oxadiazol-2-yl)(4-(4,7-difluorobenzo[d]oxazol-2-yl)-6,7-dihydro-1H-imidazo[4,5-c]pyridin-5(4H)-yl)methanone]",≤ 0.5
5,Cn1ccc(-c2nnc(C(=O)N3CCc4[nH]cnc4[C@H]3c3nc4c(F)ccc(F)c4o3)o2)n1 [Example 813],≤ 0.5
6,"O=C(c1nnc(-c2ccn(C(F)F)n2)o1)N1CCc2[nH]cnc2[C@@H]1c1nc2c(F)ccc(F)c2o1 [Example 815, (R)-(4-(4,7-difluorobenzo[d]oxazol-2-yl)-6,7-dihydro-1H-imidazo[4,5-c]pyridin-5(4H)-yl)(5-(1-(difluoromethyl)-1H-pyrazol-3-yl)-1,3,4-oxadiazol-2-yl)methanone]",0.5 to 1
7,"O=C(c1nnc(-c2ccn(C(F)F)n2)o1)N1CCc2[nH]cnc2[C@@H]1c1nc2c(F)ccc(F)c2o1 [Example 816, (R)-(4-(4,7-difluorobenzo[d]oxazol-2-yl)-6,7-dihydro-1H-imidazo[4,5-c]pyridin-5(4H)-yl)(5-(1-(difluoromethyl)-1H-pyrazol-3-yl)-1,3,4-oxadiazol-2-yl)methanone]",≤ 0.5
8,"Cn1cnc(-c2nnc(C(=O)N3CCc4[nH]cnc4[C@@H]3c3nc4c(F)ccc(F)c4o3)o2)c1 [Example 818, (R)-(4-(4,7-difluorobenzo[d]oxazol-2-yl)-6,7-dihydro-1H-imidazo[4,5-c]pyridin-5(4H)-yl)(5-(1-methyl-1H-imidazol-4-yl)-1,3,4-oxadiazol-2-yl)methanone]",1 to 5
9,"Cc1nc(C(=O)N2CCc3[nH]cnc3[C@H]2c2nc3c(C)cccc3o2)n(C)n1 [Example 819, (S)-(1,3-dimethyl-1H-1,2,4-triazol-5-yl)(4-(4-methylbenzo[d]oxazol-2-yl)-6,7-dihydro-1H-imidazo[4,5-c]pyridin-5(4H)-yl)methanone]",0.5 to 1
10,"COc1cccc2nc([C@@H]3c4nc[nH]c4CCN3C(=O)c3cc(C)nn3C)oc12 [Example 821, (S)-(1,3-dimethyl-1H-pyrazol-5-yl)(4-(7-methoxybenzo[d]oxazol-2-yl)-6,7-dihydro-1H-imidazo[4,5-c]pyridin-5(4H)-yl)methanone]",≤ 0.5
11,"COc1cccc2nc([C@H]3c4nc[nH]c4CCN3C(=O)c3cc(C)nn3C)oc12 [Example 822, (R)-(1,3-dimethyl-1H-pyrazol-5-yl)(4-(7-methoxybenzo[d]oxazol-2-yl)-6,7-dihydro-1H-imidazo[4,5-c]pyridin-5(4H)-yl)methanone]",1 to 5
12,"CC(C)(CO)c1nc(C(F)F)c(C(=O)N2CCc3[nH]cnc3[C@@H]2c2nc3cc(F)ccc3o2)o1 [Example 823, (R)-(4-(difluoromethyl)-2-(1-hydroxy-2-methylpropan-2-yl)oxazol-5-yl)(4-(5-fluorobenzo[d]oxazol-2-yl)-6,7-dihydro-1H-imidazo[4,5-c]pyridin-5(4H)-yl)methanone]",1 to 5
13,"CC(C)(CO)c1nc(C(F)F)c(C(=O)N2CCc3[nH]cnc3[C@H]2c2nc3cc(F)ccc3o2)o1 [Example 824, (S)-(4-(difluoromethyl)-2-(1-hydroxy-2-methylpropan-2-yl)oxazol-5-yl)(4-(5-fluorobenzo[d]oxazol-2-yl)-6,7-dihydro-1H-imidazo[4,5-c]pyridin-5(4H)-yl)methanone]",≤ 0.5
14,"Cc1nc(-c2ccn(C)n2)oc1C(=O)N1CCc2[nH]cnc2[C@H]1c1nc2cc(F)ccc2o1 [Example 825, (S)-(4-(5-fluorobenzo[d]oxazol-2-yl)-6,7-dihydro-1H-imidazo[4,5-c]pyridin-5(4H)-yl)(4-methyl-2-(1-methyl-1H-pyrazol-3-yl)oxazol-5-yl)methanone]",1 to 5
15,"COc1cccc2oc([C@@H]3c4nc[nH]c4CCN3C(=O)c3nc(C)nn3C)nc12 [Example 827, (S)-(1,3-dimethyl-1H-1,2,4-triazol-5-yl)(4-(4-methoxybenzo[d]oxazol-2-yl)-6,7-dihydro-1H-imidazo[4,5-c]pyridin-5(4H)-yl)methanone]",1 to 5
16,"Cn1cc(-c2nnc(C(=O)N3CCc4[nH]cnc4[C@@H]3c3nc4cccc(C(F)(F)F)c4o3)o2)cn1 [Example 829, (R)-(5-(1-methyl-1H-pyrazol-4-yl)-1,3,4-oxadiazol-2-yl)(4-(7-(trifluoromethyl)benzo[d]oxazol-2-yl)-6,7-dihydro-1H-imidazo[4,5-c]pyridin-5(4H)-yl)methanone]",1 to 5
17,"Cn1ccc(-c2nnc(C(=O)N3CCc4[nH]cnc4[C@@H]3c3nc4cccc(C(F)(F)F)c4o3)o2)n1 [Example 831, (R)-(5-(1-methyl-1H-pyrazol-3-yl)-1,3,4-oxadiazol-2-yl)(4-(7-(trifluoromethyl)benzo[d]oxazol-2-yl)-6,7-dihydro-1H-imidazo[4,5-c]pyridin-5(4H)-yl)methanone]",0.5 to 1
18,"Cn1ccc(-c2nnc(C(=O)N3CCc4[nH]cnc4[C@H]3c3nc4cccc(C(F)(F)F)c4o3)o2)n1 [Example 832, (S)-(5-(1-methyl-1H-pyrazol-3-yl)-1,3,4-oxadiazol-2-yl)(4-(7-(trifluoromethyl)benzo[d]oxazol-2-yl)-6,7-dihydro-1H-imidazo[4,5-c]pyridin-5(4H)-yl)methanone]",≤ 0.5

# Other lines, results leading:
row,AC50 [µM],Compound
1,≤ 0.5,"CC(C)(F)c1nnc(C(=O)N2CCc3[nH]cnc3[C@@H]2c2nc3c(F)ccc(F)c3o2)o1 [Example 809, (R)-(4-(4,7-difluorobenzo[d]oxazol-2-yl)-6,7-dihydro-1H-imidazo[4,5-c]pyridin-5(4H)-yl)(5-(2-fluoropropan-2-yl)-1,3,4-oxadiazol-2-yl)methanone]"
2,0.5 to 1,"O=C(c1nnc(-c2cnn(C3CCC3)c2)o1)N1CCc2[nH]cnc2[C@@H]1c1nc2c(F)ccc(F)c2o1 [Example 812, (R)-(5-(1-cyclobutyl-1H-pyrazol-4-yl)-1,3,4-oxadiazol-2-yl)(4-(4,7-difluorobenzo[d]oxazol-2-yl)-6,7-dihydro-1H-imidazo[4,5-c]pyridin-5(4H)-yl)methanone]"
3,0.5 to 1,"Cn1cnc(-c2nnc(C(=O)N3CCc4[nH]cnc4[C@H]3c3nc4c(F)ccc(F)c4o3)o2)c1 [Example 817, (S)-(4-(4,7-difluorobenzo[d]oxazol-2-yl)-6,7-dihydro-1H-imidazo[4,5-c]pyridin-5(4H)-yl)(5-(1-methyl-1H-imidazol-4-yl)-1,3,4-oxadiazol-2-yl)methanone]"
4,≥ 5,"Cc1nc(C(=O)N2CCc3[nH]cnc3[C@@H]2c2nc3c(C)cccc3o2)n(C)n1 [Example 820, (R)-(1,3-dimethyl-1H-1,2,4-triazol-5-yl)(4-(4-methylbenzo[d]oxazol-2-yl)-6,7-dihydro-1H-imidazo[4,5-c]pyridin-5(4H)-yl)methanone]"
5,≥ 5,"Cc1nc(-c2ccn(C)n2)oc1C(=O)N1CCc2[nH]cnc2[C@@H]1c1nc2cc(F)ccc2o1 [Example 826, (R)-(4-(5-fluorobenzo[d]oxazol-2-yl)-6,7-dihydro-1H-imidazo[4,5-c]pyridin-5(4H)-yl)(4-methyl-2-(1-methyl-1H-pyrazol-3-yl)oxazol-5-yl)methanone]"
6,≥ 5,"COc1cccc2oc([C@H]3c4nc[nH]c4CCN3C(=O)c3nc(C)nn3C)nc12 [Example 828, (R)-(1,3-dimethyl-1H-1,2,4-triazol-5-yl)(4-(4-methoxybenzo[d]oxazol-2-yl)-6,7-dihydro-1H-imidazo[4,5-c]pyridin-5(4H)-yl)methanone]"
7,0.5 to 1,"Cn1cc(-c2nnc(C(=O)N3CCc4[nH]cnc4[C@H]3c3nc4cccc(C(F)(F)F)c4o3)o2)cn1 [Example 830, (S)-(5-(1-methyl-1H-pyrazol-4-yl)-1,3,4-oxadiazol-2-yl)(4-(7-(trifluoromethyl)benzo[d]oxazol-2-yl)-6,7-dihydro-1H-imidazo[4,5-c]pyridin-5(4H)-yl)methanone]"
8,≤ 0.5,"O=C(c1nnc(-c2ncccc2F)o1)N1CCc2[nH]cnc2[C@H]1c1nc2ccccc2o1 [Example 833, (S)-(4-(benzo[d]oxazol-2-yl)-6,7-dihydro-1H-imidazo[4,5-c]pyridin-5(4H)-yl)(5-(3-fluoropyridin-2-yl)-1,3,4-oxadiazol-2-yl)methanone]"
